Data as given in ChEMBL document CHEMBL4049404, “Discovery of (R)-1-(3-(4-Amino-3-(3-chloro-4-(pyridin-2-ylmethoxy)phenyl)-1H-pyrazolo[3,4-d]pyrimidin-1-yl)piperidin-1-yl)prop-2-en-1-one (CHMFL-EGFR-202) as a Novel Irreversible EGFR Mutant Kinase Inhibitor with a Distinct Binding Mode” (J Med Chem, 2017).

Tests used:
[1] = target: T1, Epidermal growth factor receptor (Homo sapiens, UniProt P00533); test: Inhibition of recombinant human GST-tagged EGFR cytoplasmic domain expressed in baculovirus by Z'-LYTE assay
T1 sequence (P00533 whole entry, the tested form may be a part): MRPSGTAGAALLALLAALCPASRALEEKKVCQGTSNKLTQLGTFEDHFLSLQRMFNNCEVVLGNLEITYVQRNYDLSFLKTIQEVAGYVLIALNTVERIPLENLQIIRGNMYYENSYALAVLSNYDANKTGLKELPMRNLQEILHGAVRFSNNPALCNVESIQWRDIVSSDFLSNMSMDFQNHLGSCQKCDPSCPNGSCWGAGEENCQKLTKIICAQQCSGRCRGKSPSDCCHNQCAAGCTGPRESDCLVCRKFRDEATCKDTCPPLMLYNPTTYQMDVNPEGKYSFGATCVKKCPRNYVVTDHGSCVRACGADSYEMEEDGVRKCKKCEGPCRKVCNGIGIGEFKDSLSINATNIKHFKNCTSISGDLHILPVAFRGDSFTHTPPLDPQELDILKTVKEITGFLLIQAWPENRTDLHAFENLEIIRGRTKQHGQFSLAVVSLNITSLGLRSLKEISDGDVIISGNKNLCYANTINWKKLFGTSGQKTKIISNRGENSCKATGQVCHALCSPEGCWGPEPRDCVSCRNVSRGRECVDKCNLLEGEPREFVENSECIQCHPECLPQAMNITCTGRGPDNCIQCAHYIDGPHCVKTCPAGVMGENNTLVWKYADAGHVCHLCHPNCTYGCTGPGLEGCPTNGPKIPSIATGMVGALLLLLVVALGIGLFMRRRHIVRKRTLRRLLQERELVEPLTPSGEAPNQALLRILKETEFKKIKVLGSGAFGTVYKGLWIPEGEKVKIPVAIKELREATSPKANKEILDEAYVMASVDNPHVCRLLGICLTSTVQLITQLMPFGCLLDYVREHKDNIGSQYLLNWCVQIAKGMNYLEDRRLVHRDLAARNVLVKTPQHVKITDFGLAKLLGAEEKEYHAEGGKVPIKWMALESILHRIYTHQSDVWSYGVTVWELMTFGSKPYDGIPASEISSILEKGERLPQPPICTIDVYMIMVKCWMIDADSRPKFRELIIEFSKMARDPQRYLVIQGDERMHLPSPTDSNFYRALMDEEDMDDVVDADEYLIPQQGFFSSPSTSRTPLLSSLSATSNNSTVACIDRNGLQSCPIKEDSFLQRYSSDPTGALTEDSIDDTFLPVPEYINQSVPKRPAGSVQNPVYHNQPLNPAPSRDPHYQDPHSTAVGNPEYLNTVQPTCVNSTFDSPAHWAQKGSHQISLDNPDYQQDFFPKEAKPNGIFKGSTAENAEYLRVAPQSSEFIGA

[2] = target: Tyrosine-protein kinase Blk (Homo sapiens, UniProt P51451); test: Inhibition of full-length recombinant human His-tagged BLK expressed in baculovirus by Z'-LYTE assay
[3] = target: Tyrosine-protein kinase BTK (Homo sapiens, UniProt Q06187); test: Inhibition of full-length recombinant human His-tagged BTK cytoplasmic domain expressed in baculovirus by Z'-LYTE assay
Chain of Tyrosine-protein kinase BTK (Q06187 whole entry, the tested form may be a part): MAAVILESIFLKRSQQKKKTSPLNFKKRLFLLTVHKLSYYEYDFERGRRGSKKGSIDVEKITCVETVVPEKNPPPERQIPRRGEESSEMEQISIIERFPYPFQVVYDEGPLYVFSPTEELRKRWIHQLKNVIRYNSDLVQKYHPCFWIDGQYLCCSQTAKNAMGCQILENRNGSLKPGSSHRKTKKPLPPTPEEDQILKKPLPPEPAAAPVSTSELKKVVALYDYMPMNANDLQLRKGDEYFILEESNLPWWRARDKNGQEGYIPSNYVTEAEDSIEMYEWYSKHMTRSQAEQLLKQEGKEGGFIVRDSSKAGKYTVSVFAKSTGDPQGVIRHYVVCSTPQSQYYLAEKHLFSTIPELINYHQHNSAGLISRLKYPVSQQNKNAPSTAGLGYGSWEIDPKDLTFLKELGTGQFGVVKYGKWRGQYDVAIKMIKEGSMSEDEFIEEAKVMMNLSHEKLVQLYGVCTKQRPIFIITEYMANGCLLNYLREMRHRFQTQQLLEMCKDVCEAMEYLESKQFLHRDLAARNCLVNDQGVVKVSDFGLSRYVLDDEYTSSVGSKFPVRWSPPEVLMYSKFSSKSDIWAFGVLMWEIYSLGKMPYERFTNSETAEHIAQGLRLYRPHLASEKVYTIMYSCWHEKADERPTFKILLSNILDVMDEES

[4] = target: T2, Receptor tyrosine-protein kinase erbB-4 (Homo sapiens, UniProt Q15303); test: Binding affinity to wild-type human ERBB4 expressed in bacterial system assessed as control score at 1 uM by KINOMEScan assay
T2 sequence (Q15303 whole entry): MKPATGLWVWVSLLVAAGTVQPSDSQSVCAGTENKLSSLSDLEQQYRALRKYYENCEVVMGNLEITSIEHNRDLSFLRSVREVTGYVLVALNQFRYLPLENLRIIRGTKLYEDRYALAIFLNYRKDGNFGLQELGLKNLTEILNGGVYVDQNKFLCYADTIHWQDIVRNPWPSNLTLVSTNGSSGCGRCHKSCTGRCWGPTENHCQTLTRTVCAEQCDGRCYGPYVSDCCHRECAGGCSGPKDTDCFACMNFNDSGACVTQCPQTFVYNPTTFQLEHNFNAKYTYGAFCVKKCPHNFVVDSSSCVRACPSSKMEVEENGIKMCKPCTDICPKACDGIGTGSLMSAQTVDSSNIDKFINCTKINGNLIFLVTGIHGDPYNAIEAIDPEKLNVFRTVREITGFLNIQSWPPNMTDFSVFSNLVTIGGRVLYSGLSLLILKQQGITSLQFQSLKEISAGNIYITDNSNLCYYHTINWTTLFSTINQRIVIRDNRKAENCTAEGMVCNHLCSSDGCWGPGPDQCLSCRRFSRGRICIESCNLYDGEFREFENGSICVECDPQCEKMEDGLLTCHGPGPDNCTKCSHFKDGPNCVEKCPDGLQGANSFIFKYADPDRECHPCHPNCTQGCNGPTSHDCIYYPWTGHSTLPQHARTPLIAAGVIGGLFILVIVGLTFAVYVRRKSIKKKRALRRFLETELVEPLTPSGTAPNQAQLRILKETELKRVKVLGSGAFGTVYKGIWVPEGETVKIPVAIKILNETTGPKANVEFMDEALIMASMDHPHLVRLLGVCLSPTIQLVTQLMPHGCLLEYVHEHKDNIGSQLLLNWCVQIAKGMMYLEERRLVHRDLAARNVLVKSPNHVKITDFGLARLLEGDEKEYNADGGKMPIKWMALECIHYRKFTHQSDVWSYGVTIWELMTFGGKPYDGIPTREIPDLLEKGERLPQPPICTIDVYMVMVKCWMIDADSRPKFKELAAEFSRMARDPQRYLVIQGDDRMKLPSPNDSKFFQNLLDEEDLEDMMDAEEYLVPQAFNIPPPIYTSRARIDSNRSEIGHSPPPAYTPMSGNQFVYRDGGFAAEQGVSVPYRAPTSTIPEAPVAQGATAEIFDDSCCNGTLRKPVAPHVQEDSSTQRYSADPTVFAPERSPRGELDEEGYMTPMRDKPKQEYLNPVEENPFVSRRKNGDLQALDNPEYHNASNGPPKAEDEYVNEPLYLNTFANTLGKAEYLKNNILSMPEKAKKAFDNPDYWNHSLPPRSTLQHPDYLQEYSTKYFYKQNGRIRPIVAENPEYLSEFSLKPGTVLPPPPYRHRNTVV

[5] = target: Cytoplasmic tyrosine-protein kinase BMX (Homo sapiens) (UniProt P51813); test: Binding affinity to wild-type human BMX expressed in bacterial system assessed as control score at 1 uM by KINOMEScan assay
[6] = MRT (0 to infinity) in Sprague-Dawley rat plasma at 10 mg/kg, po after 24 hrs; assay type: ADME, organism-based
[7] = target: Epidermal growth factor receptor (Homo sapiens, UniProt P00533, EX19DEL); test: Inhibition of EGFR exon 19 deletion mutant in human PC9 cells assessed as reduction in ERK phosphorylation at Thr202/Tyr204 measured after 4 hrs by Western blot analysis; assay type: cell-based
Chain of Epidermal growth factor receptor (Homo sapiens, UniProt P00533, EX19DEL) (P00533 whole entry, looked up, stated change not applied): as the sequence (P00533 whole entry, the tested form may be a part) above

[8] = target: T1, Epidermal growth factor receptor; test: Inhibition of wild-type EGFR in human NCI-H2122 cells assessed as reduction in Akt phosphorylation at 308 site at 0.01 to 3 uM by Western blot analysis; assay type: cell-based
[9] = target: Dual specificity mitogen-activated protein kinase kinase 1 (Homo sapiens, UniProt Q02750); test: Binding affinity to full-length human MEK1 expressed in mammalian system assessed as control score at 1 uM by KINOMEScan assay
Chain of Dual specificity mitogen-activated protein kinase kinase 1 (Q02750 whole entry, the tested form may be a part): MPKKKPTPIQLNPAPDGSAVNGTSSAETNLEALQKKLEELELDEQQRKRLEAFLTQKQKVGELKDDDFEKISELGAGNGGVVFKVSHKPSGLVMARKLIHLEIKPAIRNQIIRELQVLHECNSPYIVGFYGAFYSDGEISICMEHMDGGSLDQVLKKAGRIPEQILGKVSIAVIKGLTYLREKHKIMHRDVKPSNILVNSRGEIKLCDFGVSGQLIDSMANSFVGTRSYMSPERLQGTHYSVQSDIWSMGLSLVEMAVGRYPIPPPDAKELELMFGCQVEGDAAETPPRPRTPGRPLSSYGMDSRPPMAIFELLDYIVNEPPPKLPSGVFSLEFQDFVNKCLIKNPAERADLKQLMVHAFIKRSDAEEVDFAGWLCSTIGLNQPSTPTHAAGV

[10] = target: T2, Receptor tyrosine-protein kinase erbB-4; test: Inhibition of recombinant human N-terminal GST-tagged ERBB4 cytoplasmic domain (708 to 993 residues) expressed in baculovirus by Z'-LYTE assay
[11] = target: Cytoplasmic tyrosine-protein kinase BMX (Homo sapiens, UniProt P51813); test: Inhibition of full-length recombinant human His-tagged BMX expressed in baculovirus by Z'-LYTE assay
Rattus norvegicus [12] = test: AUC (0 to infinity) in Sprague-Dawley rat plasma at 10 mg/kg, po after 24 hrs; assay type: ADME, organism-based; parameters: dose 10 mg/kg, time infinity, route oral; settings: in vivo
[13] = target: T1, Epidermal growth factor receptor; test: Inhibition of wild-type EGFR in human A549 cells assessed as reduction in 4EBP1 phosphorylation at Thr37/46 site at 0.01 to 3 uM by Western blot analysis; assay type: cell-based; settings: a549, 3 µM
Rattus norvegicus [14] = test: AUC (0 to infinity) in Sprague-Dawley rat plasma at 1 mg/kg, iv after 8 hrs; assay type: ADME, organism-based; parameters: dose 1 mg/kg, route intravenous, time infinity; settings: in vivo
[15] = target: T1, Epidermal growth factor receptor; test: Inhibition of wild-type EGFR in human NCI-H2122 cells assessed as reduction in Akt phosphorylation at 473 site at 0.01 to 3 uM by Western blot analysis; assay type: cell-based
[16] = target: Receptor tyrosine-protein kinase erbB-2 (Homo sapiens, UniProt P04626); test: Binding affinity to wild-type human ERBB2 expressed in mammalian system assessed as control score at 1 uM by KINOMEScan assay
[17] = target: Epidermal growth factor receptor (Homo sapiens, UniProt P00533, L858R/T790M); test: Inhibition of EGFR T790M/L858R mutant (unknown origin) autophosphorylation at Y1068 expressed in mouse BAF3 cells after 4 hrs by Western blot analysis; assay type: cell-based
[18] = target: T1, Epidermal growth factor receptor; test: Inhibition of wild-type EGFR in human A549 cells assessed as reduction in Akt phosphorylation at 308 site at 0.01 to 3 uM by Western blot analysis; assay type: cell-based; settings: a549, 3 µM
[19] = Oral bioavailability in Sprague-Dawley rat at 10 mg/kg after 24 hrs; assay type: ADME, organism-based; settings: in vivo

## C=CC(=O)N1CCC[C@@H](n2nc(-c3ccc(OCc4ccccn4)c(Cl)c3)c3c(N)ncnc32)C1
[1]
  IC50: 8.3 nM
[2]
  IC50: 8.1 nM
[3]
  IC50: 24.5 nM
[4]
  Activity: 0%
[5]
  Activity: 0.9%
[6]
  MRT inf: 2.55 h
[7]
  EC50: < 10 nM
[8]
  inhibition (INH): Not Active
[9]
  Activity: 0.4%
[10]
  IC50: 3.2 nM
[11]
  IC50: 111 nM
Rattus norvegicus [12]
  AUC: 441 ng·h/mL
[13]
  inhibition (INH): Not Active
Rattus norvegicus [14]
  AUC: 405 ng·h/mL
[15]
  inhibition (INH): Not Active
[16]
  Activity: 0%
[17]
  EC50: 7 nM
[18]
  inhibition (INH): Not Active
[19]
  bioavailability: 10.3%
